Experimental data taken from ChEMBL document CHEMBL1201862, “PubChem BioAssay data set” (2004).
Where “and” joins values, the source holds several entries; their conditions need not be identical. Equal values may be shown once.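 Results reflect a 48-hour exposure of cells in 96-well plates to compound at five concentrations. GI50 marks 50% less growth.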 Calls of active or inactive are those of the source. Rule as the data show it: active = GI50 up to about 1.1 µM and inactive = higher.

Legend:
Assay in all cases: DTP human tumour cell line panel, 48 h
A549 = system: A549
ACHN = system: ACHN
LOX IMVI = system: LOX IMVI
MCF7 = system: MCF7
MDA-MB-231 = system: MDA-MB-231
NCI/ADR-RES = system: NCI/ADR-RES
OVCAR-4 = system: OVCAR-4
PC-3 = system: PC-3
SF-268 = system: SF-268
SF-295 = system: SF-295
SF-539 = system: SF-539
SK-MEL-5 = system: SK-MEL-5
SN12C = system: SN12C
SNB-19 = system: SNB-19
SR = system: SR
SW-620 = system: SW-620
UACC-62 = system: UACC-62
HCC 2998 = system: HCC 2998
OVCAR-3 = system: OVCAR-3
RXF 393 = system: RXF 393

Structure (SMILES) | GI50 (A549) | GI50 (ACHN) | GI50 (LOX IMVI) | GI50 (MCF7) | GI50 (MDA-MB-231) | GI50 (NCI/ADR-RES) | GI50 (OVCAR-4) | GI50 (PC-3) | GI50 (SF-268) | GI50 (SF-295) | GI50 (SF-539) | GI50 (SK-MEL-5) | GI50 (SN12C) | GI50 (SNB-19) | GI50 (SR) | GI50 (SW-620) | GI50 (UACC-62) | GI50 (HCC 2998) | GI50 (OVCAR-3) | GI50 (RXF 393)
CC1=CC(=O)CC2(C)CCC(C(C)CC(=O)CC(C)C)CC12OO (configuration not stated) | 16.7 µM (inactive) and 15.4 µM (inactive) | 17.6 µM (inactive) and 17.1 µM (inactive) | 14.6 µM (inactive) and 16.4 µM (inactive) | 16.9 µM (inactive) and 17.2 µM (inactive) | 15.1 µM (inactive) and 18.5 µM (inactive) | 24.8 µM (inactive) and 23.1 µM (inactive) | 27.7 µM (inactive) and 16 µM (inactive) | 14.3 µM (inactive) and 15.7 µM (inactive) | 17 µM (inactive) and 20 µM (inactive) | 16.4 µM (inactive) and 17 µM (inactive) | 16.4 µM (inactive) and 15.2 µM (inactive) | 15.7 µM (inactive) and 21 µM (inactive) | 17.6 µM (inactive) and 18.7 µM (inactive) | > 100 µM (inactive) and 95.5 µM (inactive) | 18.5 µM (inactive) and 20.6 µM (inactive) | 19 µM (inactive) and 17.3 µM (inactive) | 20.8 µM (inactive) and 17.6 µM (inactive) | – | – | –
CC1=CC(O)(c2ccccc2)C(N2CCOCC2)N1O (configuration not stated) | > 100 µM (inactive) | > 100 µM (inactive) | > 100 µM (inactive) | > 100 µM (inactive) | > 100 µM (inactive) | > 100 µM (inactive) | > 100 µM (inactive) | > 100 µM (inactive) | > 100 µM (inactive) | > 100 µM (inactive) | > 100 µM (inactive) | > 100 µM (inactive) | > 100 µM (inactive) | > 100 µM (inactive) | > 100 µM (inactive) | > 100 µM (inactive) | – | > 100 µM (inactive) | > 100 µM (inactive) | –
CCOC(=O)N1c2ccccc2N(C(=O)OCC)C1CC(=O)/C=C/c1ccccc1 | 3.36 µM (inactive) | 4.15 µM (inactive) | 2.45 µM (inactive) | 3.1 µM (inactive) | 4.03 µM (inactive) | 2.73 µM (inactive) | 2.23 µM (inactive) | 3.94 µM (inactive) | 2.37 µM (inactive) | 4.05 µM (inactive) | – | 2.47 µM (inactive) | 3.66 µM (inactive) | 3.28 µM (inactive) | 2.3 µM (inactive) | 2.06 µM (inactive) | 2.7 µM (inactive) | 3 µM (inactive) | 3.13 µM (inactive) | 3.85 µM (inactive)
COc1ccc(/C=N/NS(=O)(=O)c2ccc(/C=C3\NC(=O)N(C)C3=O)cc2)cc1 | > 100 µM (inactive) | > 100 µM (inactive) | > 100 µM (inactive) | 40.9 µM (inactive) | 38.8 µM (inactive) | > 100 µM (inactive) | 43.9 µM (inactive) | 80.2 µM (inactive) | 37.8 µM (inactive) | 55 µM (inactive) | – | > 100 µM (inactive) | > 100 µM (inactive) | 80.9 µM (inactive) | > 100 µM (inactive) | > 100 µM (inactive) | 98.9 µM (inactive) | > 100 µM (inactive) | 40.6 µM (inactive) | 38.6 µM (inactive)
CCCCCC(C(O)C#N)C(O)(C(F)(F)F)C(F)(F)F (configuration not stated) | > 10 µM (inactive) | > 10 µM (inactive) | > 10 µM (inactive) | > 10 µM (inactive) | > 10 µM (inactive) | > 10 µM (inactive) | > 10 µM (inactive) | > 10 µM (inactive) | > 10 µM (inactive) | > 10 µM (inactive) | > 10 µM (inactive) | > 10 µM (inactive) | > 10 µM (inactive) | > 10 µM (inactive) | > 10 µM (inactive) | > 10 µM (inactive) | > 10 µM (inactive) | > 10 µM (inactive) | > 10 µM (inactive) | –
O=C(NC(=S)Nc1ccc(Br)cc1)c1ccc2c(c1)Sc1ccccc1O2 | > 100 µM (inactive) | 60.1 µM (inactive) | > 100 µM (inactive) | > 100 µM (inactive) | 58.6 µM (inactive) | > 100 µM (inactive) | – | > 100 µM (inactive) | 48.3 µM (inactive) | 54.5 µM (inactive) | > 100 µM (inactive) | > 100 µM (inactive) | 95.7 µM (inactive) | 39.3 µM (inactive) | 36.6 µM (inactive) | > 100 µM (inactive) | 68.2 µM (inactive) | – | > 100 µM (inactive) | –
N#Cc1c(NCCc2ccc(F)cc2)c2ccccc2n2c1nc1ccccc12 | 33.7 µM (inactive) | 9.18 µM (inactive) | 14.1 µM (inactive) | 6.34 µM (inactive) | 10 µM (inactive) | 12.3 µM (inactive) | 2.45 µM (inactive) | 13 µM (inactive) | 7.41 µM (inactive) | 10.7 µM (inactive) | 9.27 µM (inactive) | – | 15.1 µM (inactive) | 14 µM (inactive) | > 100 µM (inactive) | 75 µM (inactive) | 7.6 µM (inactive) | 40.3 µM (inactive) | 13.9 µM (inactive) | 10.7 µM (inactive)
Cc1n[nH]c(=O)n1/N=C/c1cccnc1 | > 100 µM (inactive) | > 100 µM (inactive) | > 100 µM (inactive) | > 100 µM (inactive) | > 100 µM (inactive) | > 100 µM (inactive) | > 100 µM (inactive) | > 100 µM (inactive) | > 100 µM (inactive) | > 100 µM (inactive) | > 100 µM (inactive) | > 100 µM (inactive) | > 100 µM (inactive) | > 100 µM (inactive) | > 100 µM (inactive) | > 100 µM (inactive) | > 100 µM (inactive) | > 100 µM (inactive) | > 100 µM (inactive) | –
CN(C)CCNC1=Nc2ccccc2C(=O)N2CSCC12 (configuration not stated) | > 100 µM (inactive) | > 100 µM (inactive) | > 100 µM (inactive) | > 100 µM (inactive) | > 100 µM (inactive) | > 100 µM (inactive) | > 100 µM (inactive) | > 100 µM (inactive) | > 100 µM (inactive) | > 100 µM (inactive) | – | > 100 µM (inactive) | > 100 µM (inactive) | > 100 µM (inactive) | > 100 µM (inactive) | > 100 µM (inactive) | > 100 µM (inactive) | > 100 µM (inactive) | > 100 µM (inactive) | > 100 µM (inactive)
CC(C)(CN1CCCCC1)C(=O)CC(SCCS(=O)(=O)O)c1ccc(Cl)c(Cl)c1 (configuration not stated) | 5.98 µM (inactive) | 3.29 µM (inactive) | – | 3.46 µM (inactive) | 2.08 µM (inactive) | 3.21 µM (inactive) | 3.52 µM (inactive) | 4.94 µM (inactive) | 3.72 µM (inactive) | 3.25 µM (inactive) | 2.65 µM (inactive) | 8.73 µM (inactive) | 3.46 µM (inactive) | 10.4 µM (inactive) | 3.1 µM (inactive) | 2.22 µM (inactive) | 3.13 µM (inactive) | 13 µM (inactive) | 2.37 µM (inactive) | 3.16 µM (inactive)
Cc1cc2c(cc1-c1cc3c(cc1C)C(C(C)C)=C(O)C(=O)/C3=C\Nc1nc(-c3ccccc3)cs1)/C(=C/Nc1nc(-c3ccccc3)cs1)C(=O)C(O)=C2C(C)C | 19.1 µM (inactive) | 14.9 µM (inactive) | – | 18.1 µM (inactive) | 10.8 µM (inactive) | 26.1 µM (inactive) | 30.8 µM (inactive) | 15.7 µM (inactive) | 24.6 µM (inactive) | 15.6 µM (inactive) | 18.2 µM (inactive) | 16.7 µM (inactive) | 22.3 µM (inactive) | 17.1 µM (inactive) | 32.5 µM (inactive) | 15.6 µM (inactive) | 16.7 µM (inactive) | – | 15.3 µM (inactive) | 15.3 µM (inactive)
NCCCN(CCCN(C(=O)Nc1ccccc1)c1ccccc1)C(=O)Nc1ccccc1 | 47.1 µM (inactive) | 55.7 µM (inactive) | 23.5 µM (inactive) | 35.1 µM (inactive) | 59.6 µM (inactive) | 69.5 µM (inactive) | – | 33.7 µM (inactive) | 32.6 µM (inactive) | 23.2 µM (inactive) | – | 18.5 µM (inactive) | 64.9 µM (inactive) | 52.4 µM (inactive) | 45 µM (inactive) | 21.3 µM (inactive) | 23.1 µM (inactive) | 25.6 µM (inactive) | – | 24.5 µM (inactive)
COc1cccc(-c2cc(O)c3cc(N4CCN(C)CC4)ccc3n2)c1 | 2.39 µM (inactive) | 5.25 µM (inactive) | 1.73 µM (inactive) | 2.67 µM (inactive) | 3.34 µM (inactive) | 1.47 µM (inactive) | 5.28 µM (inactive) | 2.44 µM (inactive) | 1.91 µM (inactive) | 1.71 µM (inactive) | 0.557 µM (active) | 0.454 µM (active) | 2.92 µM (inactive) | 2.77 µM (inactive) | 0.42 µM (active) | 0.522 µM (active) | 1.28 µM (inactive) | 2.01 µM (inactive) | – | 1.18 µM (inactive)
O=C(O)CCc1nc(-c2ccccc2)c(-c2ccccc2)o1 [OXAPROZIN] | > 100 µM (inactive) | > 100 µM (inactive) | > 100 µM (inactive) | > 100 µM (inactive) | > 100 µM (inactive) | > 100 µM (inactive) | > 100 µM (inactive) | > 100 µM (inactive) | – | > 100 µM (inactive) | > 100 µM (inactive) | > 100 µM (inactive) | > 100 µM (inactive) | > 100 µM (inactive) | > 100 µM (inactive) | > 100 µM (inactive) | > 100 µM (inactive) | – | > 100 µM (inactive) | > 100 µM (inactive)
